molecular target: RBM39 and the DCAF15 complex (RBM39-Flag / His-DCAF15-DDA1-DDB1) (Homo sapiens (Human), UniProt Q14498+Q66K64); assay: DCAF15 RBM39 complex formation TR-FRET assay; format: binding; conditions: RBM39(R150-D331) 3xFlag 50 nM, His-DCAF15-DDA1-DDB1 10 nM, 60 min room temperature
Description: A TR-FRET assay was used to assess the effect of compounds disclosed herein on the interaction between RBM39 and the DCAF15 complex. Test compounds were dissolved to form a 10 mM DMSO stock solution. A 45 μL aliquot of the stock solution was transferred to a 384 pp-plate, and a threefold, 8-point dilution was performed via transferring 15 μL compound solution into 30 μL of DMSO. The plates were then spun at room temperature at 1,000 RPM for 1 minute.
A 30 nL aliquot of the diluted compound was transferred to a 384 well plate, which was incubated at room temperature for 15 minutes. Next, Solutions 1, 2, and 3 were prepared as described in the below tables. A 5 μL aliquot of Solution 2 was added to each well, followed by 5 μL of Solution 3 to start the reaction. The final volume of each well was 10 μL. The plates were incubated at room temperature for 60 minutes, and then read.
Next, an RBM39 (R150-D331) 3× Flag used in TR-FRET assay was prepared:
Recombinant RBM39 protein is composed of the R1R2 of RBM39 (aa 150 to 331; UniProt: Q14498). The coding sequence was sub-cloned into pGEX4T-1-RBM39-flag vector, expressed as a GST-fusion protein with N-terminal TEV protease cleavage site. A 3× Flag tag was added to the C-terminal of R1R2 used in a FRET assay.

| EC50 | Compound |
| --- | --- |
| 1630 nM | Cc1ccc(NS(=O)(=O)c2ncc(P(C)(C)=O)s2)c2[nH]cc(C#N)c12 [Compound 111, N-(3-cyano-4-methyl-1H-indol-7-yl)-5-(dimethylphosphoryl)thiazole-2-sulfonamide] |
| 1360 nM | Cc1ccc(NS(=O)(=O)c2ncc(C(=O)N3CCOCC3)s2)c2[nH]cc(C#N)c12 [Compound 112] |
| 3260 nM | N#Cc1c[nH]c2c(NS(=O)(=O)c3nccs3)ccc(F)c12 [Compound 114] |
| 2130 nM | N#Cc1c[nH]c2c(NS(=O)(=O)c3ncc(Cl)s3)cccc12 [Compound 116] |
| 99.6 nM | Cc1ccc(NS(=O)(=O)c2cnc(C(F)F)s2)c2[nH]cc(C#N)c12 [Compound 117] |
| 168 nM | CCc1ncc(S(=O)(=O)Nc2ccc(C)c3c(C#N)c[nH]c23)o1 [Compound 118] |
| 359 nM | N#Cc1c[nH]c2c(NS(=O)(=O)c3cnc(C(F)F)s3)cccc12 [Compound 120] |
| 960 nM | CNC(=O)c1cnc(S(=O)(=O)Nc2ccc(C)c3c(C#N)c[nH]c23)s1 [Compound 126] |
| 959 nM | Cc1ccc(NS(=O)(=O)c2ncc(C(=O)N(C)C)s2)c2[nH]cc(C#N)c12 [Compound 127] |
| 650 nM | CCN(CC)C(=O)c1csc(S(=O)(=O)Nc2ccc(C)c3c(C#N)c[nH]c23)n1 [Compound 128] |
| 1820 nM | Cc1ccc(NS(=O)(=O)c2ncc(C(=O)NCCO)s2)c2[nH]cc(C#N)c12 [Compound 129] |
| 1130 nM | Cc1ccc(NS(=O)(=O)c2ncc(C(=O)N3CCCC3)s2)c2[nH]cc(C#N)c12 [Compound 130] |
| 3800 nM | Cc1ccc(NS(=O)(=O)c2ncc(C(=O)N3CCN(C)CC3)s2)c2[nH]cc(C#N)c12 [Compound 131] |
| 6650 nM | N#Cc1c[nH]c2c(NS(=O)(=O)c3nccs3)cc(F)cc12 [Compound 132] |
| 2670 nM | O=S(=O)(Nc1cccc2c(Cl)c[nH]c12)c1nccs1 [Compound 133] |
| 1760 nM | N#Cc1c[nH]c2c(NS(=O)(=O)c3nc(C(F)(F)F)cs3)cccc12 [Compound 134] |
| 47 nM | Cc1ccc(NS(=O)(=O)c2cc(C(C)C)no2)c2[nH]cc(C#N)c12 [Compound 135] |
| 511 nM | N#Cc1c[nH]c2c(NS(=O)(=O)c3cnc(Cl)s3)cccc12 [Compound 136] |
| 423 nM | CC(C)c1cc(S(=O)(=O)Nc2cccc3c(C#N)c[nH]c23)on1 [Compound 138] |
| 6070 nM | CCc1nc(S(=O)(=O)Nc2ccc(C)c3c(C#N)c[nH]c23)cn1CC(=O)NC1CC1 [Compound 139] |
| 6620 nM | CCc1nc(S(=O)(=O)Nc2ccc(C)c3c(C#N)c[nH]c23)cn1CC(=O)O [Compound 140] |
| 919 nM | Cc1ccc(NS(=O)(=O)c2ncc(C(N)=O)s2)c2[nH]cc(C#N)c12 [Compound 141] |
| 1960 nM | COCCNC(=O)c1cnc(S(=O)(=O)Nc2ccc(C)c3c(C#N)c[nH]c23)s1 [Compound 142] |
| 2150 nM | Cc1ccc(NS(=O)(=O)c2ncc(C(=O)N3CCC(O)C3)s2)c2[nH]cc(C#N)c12 (stereo not drawn) [Compound 143] |
| 1560 nM | Cc1ccc(NS(=O)(=O)c2ncc(C(=O)N3CCCCC3)s2)c2[nH]cc(C#N)c12 [Compound 144] |
| 505 nM | CCc1nc(S(=O)(=O)Nc2ccc(F)c3c(Cl)c[nH]c23)c[nH]1 [Compound 146] |
| 2030 nM | CCc1nc(S(=O)(=O)Nc2ccc(F)c3c(C#N)c[nH]c23)c[nH]1 [Compound 147] |

| EC50 | Compound |
| --- | --- |
| 1310 nM | N#Cc1c[nH]c2c(NS(=O)(=O)c3nc(C(F)(F)F)cs3)ccc(F)c12 [Compound 148] |
| 897 nM | O=S(=O)(Nc1cc(F)cc2c(Cl)c[nH]c12)c1nc(C(F)(F)F)cs1 [Compound 149] |
| 1250 nM | N#Cc1c[nH]c2c(NS(=O)(=O)c3nc(C(F)(F)F)cs3)cc(F)cc12 [Compound 150] |
| 344 nM | O=S(=O)(Nc1cccc2c(Cl)c[nH]c12)c1nc(C(F)(F)F)cs1 [Compound 151] |
| 281 nM | Cc1nc(S(=O)(=O)Nc2ccc(C)c3c(C#N)c[nH]c23)cs1 [Compound 152] |
| 940 nM | Cc1nc(S(=O)(=O)Nc2cccc3c(C#N)c[nH]c23)cs1 [Compound 153] |
| 1840 nM | CCc1nc(S(=O)(=O)Nc2cc(F)cc3c(C#N)c[nH]c23)c[nH]1 [Compound 157] |
| 433 nM | CCc1nc(S(=O)(=O)Nc2cccc3c(Cl)c[nH]c23)c[nH]1 [Compound 158] |
| 450 nM | O=S(=O)(Nc1ccc(F)c2c(Cl)c[nH]c12)c1nc(C(F)(F)F)cs1 [Compound 159, N-(3-chloro-4-fluoro-1H-indol-7-yl)-4-(trifluoromethyl)-1,3-thiazole-2-sulfonamide] |
| 674 nM | Cc1nc(S(=O)(=O)Nc2cccc3c(C#N)c[nH]c23)sc1C [Compound 160] |
| 978 nM | Cc1ccc(NS(=O)(=O)c2cn(CC(C)C)cn2)c2[nH]cc(C#N)c12 [Compound 161] |
| 591 nM | CCCn1cnc(S(=O)(=O)Nc2ccc(C)c3c(C#N)c[nH]c23)c1 [Compound 162] |
| 893 nM | N#Cc1c[nH]c2c(NS(=O)(=O)c3nc(Cl)cs3)ccc(F)c12 [Compound 163] |
| 1010 nM | O=S(=O)(Nc1cccc2c(C(F)(F)F)c[nH]c12)c1nccs1 [Compound 185] |
| 258 nM | O=S(=O)(Nc1cccc2c(C(F)(F)F)c[nH]c12)c1cncs1 [Compound 186] |
| 228 nM | O=S(=O)(Nc1ccc(F)c2c(Cl)c[nH]c12)c1cncs1 [Compound 187] |
| 47 nM | Cc1ccc(NS(=O)(=O)c2cncs2)c2[nH]cc(C(F)(F)F)c12 [Compound 198] |
| 964 nM | N#Cc1c[nH]c2c(NS(=O)(=O)c3cncs3)ccc(F)c12 [Compound 199] |
| 207 nM | Cc1ncc(S(=O)(=O)Nc2cccc3c(Cl)c[nH]c23)s1 [Compound 200] |
| 391 nM | Cc1ncc(S(=O)(=O)Nc2ccc(F)c3c(C#N)c[nH]c23)s1 [Compound 201] |
| 241 nM | CC(C)(O)c1ncc(S(=O)(=O)Nc2cccc3c(C#N)c[nH]c23)s1 [Compound 202] |
| 583 nM | O=S(=O)(Nc1cccc2c(Cl)c[nH]c12)c1cncs1 [Compound 203] |
| 130 nM | O=S(=O)(Nc1cccc2c(Cl)c[nH]c12)c1cnc(C(F)F)s1 [Compound 204] |
| 632 nM | N#Cc1c[nH]c2c(NS(=O)(=O)c3cnc(N4CCOCC4)s3)cccc12 [Compound 205] |
| 420 nM | N#Cc1c[nH]c2c(NS(=O)(=O)c3cnsc3)cccc12 [Compound 215] |
| 3920 nM | N#Cc1c[nH]c2c(NS(=O)(=O)c3cnsn3)cccc12 [Compound 254] |
| 1160 nM | N#Cc1c[nH]c2c(NS(=O)(=O)c3cnns3)cccc12 [Compound 255] |
